Experimental data from BindingDB's records for patent US11591342 (Suzhou Sinovent Pharmaceuticals, 2023).

molecular target: Autotaxin (Homo sapiens, UniProt Q13822); test: Bioactivity Assay
Procedure: Preparation and Treatment. Stock Solution Preparation. A 10 mM DMSO stock solution was formulated for each compound. A 30 mM DMSO stock solution was formulated for positive control HA130. Preservation: The DMSO stock solutions were stored at room temperature in a desiccator for a short period of time or at −20° C. for a long period of time. Preparation All compounds were serially 3-fold diluted in DMSO from 10 μM to the 10th concentration.A 1000× positive control (10 mM, HA130) and a 1000× negative control (100% DMSO) were prepared. The plates were shaken for 5 min. Preparation of 1× Reaction Buffer:>5× reaction buffer and cold water were mixed well in a volume ratio of 1:4. Preparation of 20 U/mL Choline Oxidase Stock Solution:1 tube of choline oxide in a kit was dissolved in 1× reaction buffer. The aliquots were frozen at −20° C. Preparation of 200 U/mL Horseradish Peroxidase (HRP) Stock Solution:1 tube of HRP in a kit was dissolved in 1 mL of 1× reaction buffer. The aliquots were frozen at −20° C. Preparation of 20 mM Amplex Red Reagent (for Detection) Stock Solution Amplex Red reagent and DMSO were equilibrated at room temperature.

| IC50 [nM] | SMILES |
| --- | --- |
| 39 | CCc1nn2ccc(N3CCN(CC(=O)N4CC(O)C4)CC3)nc2c1N(C)c1nc(-c2ccc(F)cc2)c(C#N)s1 [US11591342, Compound S-0041] |
| 648 | CCn1nc2ncc(N3CCN(CC(=O)N4CC(O)C4)CC3)cc2c1N(C)c1nc(-c2ccc(F)cc2)c(C#N)s1 [US11591342, Compound S-0043] |
| 5530 | CCn1nc2cnc(N3CCN(CC(=O)N4CC(O)C4)CC3)cc2c1N(C)c1nc(-c2ccc(F)cc2)c(C#N)s1 [US11591342, Compound S-0044] |
